One series deals with H3R. The following applies: Figure 1, clinically evaluated H3R antagonists; cited from earlier work.
Series [1] concerns the target σ1R. Particulars: cited from earlier work.
The subject of another series is female CD1 mice. Put plainly: loperamide-induced antinociception, paw pressure struggle response latency. Particulars: for functional character at σ1 receptor deduced in vivo: from potentiation of loperamide antinociception and reversal by PRE-084; for effect on loperamide-induced antinociception: injected paw; for effect alone on struggle response latency to mechanical stimulus: 450 g paw pressure, without loperamide. Type of series: in vivo.

Series [2] concerns the target T1, σ2R (Rattus norvegicus, UniProt Q5U3Y7).
T1 sequence (Q5U3Y7 1-176): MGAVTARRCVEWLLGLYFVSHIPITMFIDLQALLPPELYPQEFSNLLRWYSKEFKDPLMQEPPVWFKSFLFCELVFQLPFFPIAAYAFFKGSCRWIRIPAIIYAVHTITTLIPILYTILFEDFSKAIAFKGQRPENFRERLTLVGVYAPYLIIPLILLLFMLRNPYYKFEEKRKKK
Put plainly: σ2R radioligand binding ([3H]DTG, liver membranes).

Series [3] concerns the target σ1R (Cavia porcellus, UniProt Q60492). Put plainly: σ1R radioligand binding ([3H](+)-pentazocine, brain cortex membranes).
A further series addresses T2, human H3R (Homo sapiens, UniProt Q9Y5N1).
T2 construct: expressed in transfected cells
More on the design: method as in PMID 33261900. Particulars: antagonist mode; read-out: hH3R Kb; cited from earlier work.

The target of series [4] is T3, human recombinant histamine H3R (Homo sapiens, UniProt Q9Y5N1).
T3 construct: expressed in transfected cells
T3 sequence (Q9Y5N1 whole entry): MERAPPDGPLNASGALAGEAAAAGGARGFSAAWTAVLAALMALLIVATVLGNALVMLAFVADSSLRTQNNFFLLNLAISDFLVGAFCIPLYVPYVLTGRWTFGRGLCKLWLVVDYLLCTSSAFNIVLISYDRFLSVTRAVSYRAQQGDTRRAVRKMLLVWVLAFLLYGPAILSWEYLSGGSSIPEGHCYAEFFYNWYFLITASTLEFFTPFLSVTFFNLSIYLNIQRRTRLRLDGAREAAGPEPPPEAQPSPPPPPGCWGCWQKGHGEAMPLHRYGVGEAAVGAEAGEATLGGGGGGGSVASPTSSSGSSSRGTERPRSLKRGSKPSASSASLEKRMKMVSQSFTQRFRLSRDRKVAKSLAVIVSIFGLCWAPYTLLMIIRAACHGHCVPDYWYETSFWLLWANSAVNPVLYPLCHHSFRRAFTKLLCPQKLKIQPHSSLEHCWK
Particulars: mean [CI 95%]; read-out: hH3R Ki; cited from earlier work.

For series [5], the target named is T4, hH1R (Homo sapiens, UniProt P35367).
T4 construct: SP (signal peptide) (N); expressed in transfected cells
T4 sequence (P35367 whole entry): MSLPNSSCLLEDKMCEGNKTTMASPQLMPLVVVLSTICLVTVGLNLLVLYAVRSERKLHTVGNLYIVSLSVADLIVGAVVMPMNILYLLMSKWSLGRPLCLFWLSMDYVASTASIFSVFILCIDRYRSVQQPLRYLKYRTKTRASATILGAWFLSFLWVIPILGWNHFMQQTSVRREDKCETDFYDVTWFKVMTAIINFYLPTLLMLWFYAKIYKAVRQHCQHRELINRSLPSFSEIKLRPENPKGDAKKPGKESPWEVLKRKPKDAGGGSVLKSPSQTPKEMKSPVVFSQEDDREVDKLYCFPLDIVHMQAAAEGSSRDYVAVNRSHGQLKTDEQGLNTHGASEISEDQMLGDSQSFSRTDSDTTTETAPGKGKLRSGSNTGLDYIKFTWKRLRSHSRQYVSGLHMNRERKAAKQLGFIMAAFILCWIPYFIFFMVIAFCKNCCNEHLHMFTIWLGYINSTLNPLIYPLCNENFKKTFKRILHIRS
Further details: method as in PMID 33261900. Particulars: cited from earlier work.

A further series concerns the target T5, hH4R (Homo sapiens, UniProt Q9H3N8).
T5 construct: SP (signal peptide) (N); expressed in transfected cells
Put plainly: hH4R radioligand binding ([3H]UR-PI294). Particulars: HEK293T cells; oxalate form. The procedure:
(§1) Compounds (as oxalate salts) were tested in H3R in vitro binding studies, using methods described previously.[47],[48] […] Radioligand binding experiments at the H1R, H2R, and H4R were performed as previously described in Rosier et al.[70] and Bartole et al.[71] with HEK293T-SP-FLAG-hHxR (x = 1, 2, or 4) expressing the respective hHR. […] Data represent mean values ± CI from three independent experiments, each performed in triplicate. The normalized competition binding curves were then fitted with a four-parameter logistic fit yielding IC50 values using Prism 8.4.3 software (GraphPad, SanDiego, CA). The Ki values were estimated from the Cheng–Prusoff equation.[74]

Series [6] concerns the target T4, hH1R. Put plainly: hH1R radioligand binding ([3H]mepyramine). The following applies: HEK293T cells; oxalate form. On the procedure:
as §1

The target of another series is T6, hH2R (Homo sapiens, UniProt P25021).
T6 construct: SP (signal peptide) (N); expressed in transfected cells
T6 sequence (P25021 whole entry): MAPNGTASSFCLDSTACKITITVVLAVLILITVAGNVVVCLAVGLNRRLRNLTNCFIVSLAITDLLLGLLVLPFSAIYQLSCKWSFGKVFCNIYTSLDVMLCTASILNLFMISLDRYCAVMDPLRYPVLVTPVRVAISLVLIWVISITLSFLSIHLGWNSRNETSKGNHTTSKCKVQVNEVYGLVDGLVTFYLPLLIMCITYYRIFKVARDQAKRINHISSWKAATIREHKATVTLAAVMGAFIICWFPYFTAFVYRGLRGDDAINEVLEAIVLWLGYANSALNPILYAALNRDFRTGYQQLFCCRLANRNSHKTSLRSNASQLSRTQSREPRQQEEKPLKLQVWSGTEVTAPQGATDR
Put plainly: hH2R radioligand binding ([3H]UR-DE257). The following applies: HEK293T cells; oxalate form. On the procedure: as §1

Series [7] relates to σ1R. Put plainly: σ1R radioligand binding ([3H](+)-pentazocine, brain cortex membranes). Particulars: σ2R Ki / σ1R Ki (selectivity factor).
In series [8] the target is T3, human recombinant histamine H3R. Put plainly: hH3R radioligand depletion binding assay ([3H]Nα-methylhistamine). Particulars: mean [CI 95%]; HEK293 cells; data not published yet.
Series [9] concerns the target σ2R. Particulars: cited from earlier work.
For series [10] the following is noted: quoted for comparison of basicity; no reference given; cited from earlier work.
For the next series, the target named is σ1 receptor. Particulars: read-out: EC50, functional agonism of σ1 receptor-mediated calcium flux; cited from earlier work.
Another series deals with σ2 receptor. Particulars: cited from earlier work.
Where [11] appears, read: Figure 1, clinically evaluated H3R antagonists, read-out: σ1R Ki.
[12] abbreviates: Table S1, well-known ligands (test set), no reference given, read-out: Exp. σ1 Ki.
[13] abbreviates: mice, ipl 100 μg + loperamide 4 mg/kg sc.
Setting [14] is: exptl Ki σ2, Table 3, given as mean ± spread.
[15] abbreviates: σ2R Ki, mean [CI 95%], [3H]DTG with (+)-pentazocine mask.
[16] abbreviates: exptl Ki σ1, Table 3, given as mean ± spread.
[17] abbreviates: σ1R Ki, mean [CI 95%], [3H](+)-pentazocine.
The mark [18] stands for this setting: Table S1, well-known ligands (test set), no reference given, read-out: Exp. σ2 Ki.

In general, Ki refers to a measure of affinity in units of concentration, obtained from inhibition or displacement. Usually Kb stands for the affinity of an antagonist, worked out from how it opposes an agonist. By pKa is commonly meant the pH at which an ionisable group is half protonated. What is called IC50 is the midpoint of a concentration-inhibition curve. What is called EC50 is the midpoint of the concentration-response curve.

Several values for one entry are separate records, joined by “and”; a condition that tells them apart may be missing. Equal entries are not always repeated. Structures can show the parent of a compound that is named as a salt. Where two headings read alike, the source gives them in different places.

Sequence of σ1R (Cavia porcellus, UniProt Q60492) (Q60492 whole entry): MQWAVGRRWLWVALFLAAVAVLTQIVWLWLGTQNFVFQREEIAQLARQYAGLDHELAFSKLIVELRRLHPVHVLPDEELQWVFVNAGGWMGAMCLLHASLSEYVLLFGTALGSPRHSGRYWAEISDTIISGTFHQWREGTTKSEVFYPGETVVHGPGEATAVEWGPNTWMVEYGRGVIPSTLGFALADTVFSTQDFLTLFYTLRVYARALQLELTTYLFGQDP
T5 sequence (Q9H3N8 whole entry): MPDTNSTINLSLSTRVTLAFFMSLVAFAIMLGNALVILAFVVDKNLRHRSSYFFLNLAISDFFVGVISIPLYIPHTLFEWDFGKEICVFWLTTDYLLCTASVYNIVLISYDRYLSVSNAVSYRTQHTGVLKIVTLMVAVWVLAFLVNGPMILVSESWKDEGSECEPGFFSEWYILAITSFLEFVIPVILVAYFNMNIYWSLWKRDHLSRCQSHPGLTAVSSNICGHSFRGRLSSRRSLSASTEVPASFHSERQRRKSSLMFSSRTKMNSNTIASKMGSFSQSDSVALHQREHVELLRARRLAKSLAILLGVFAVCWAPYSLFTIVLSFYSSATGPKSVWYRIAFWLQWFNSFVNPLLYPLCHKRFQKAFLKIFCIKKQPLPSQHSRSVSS
T2 sequence (Q9Y5N1 whole entry): as the sequence (Q9Y5N1 whole entry) above

As for `C[C@@H]1CCCN1CCc1cc2cc(-c3ccc(C#N)cc3)ccc2o1` [ABT-239], the results for the Ki at H3R and on σ1R [1] (setting [11]) were 15.9 nM and 6.3 nM, respectively.

Take `CN1CCN(CCc2ccc(Cl)c(Cl)c2)CC1` [BD1063]: on σ1R [1] (setting [12]), the Ki is 13.7 nM.

Take `O=C(c1ccc(OCCCN2CCC(c3ccncc3)CC2)cc1)C1CC1` [Compound 5]: in the series with female CD1 mice, the “functional character at σ1 receptor deduced in vivo” value is recorded as “σ1 receptor antagonists”. For the same compound, the “effect on loperamide-induced antinociception” value with female CD1 mice (setting [13]) is “increased the antinociceptive effect of loperamide at the injected paw”. In addition, in the series with female CD1 mice (mice, ipl 100 μg), the “effect alone on struggle response latency to mechanical stimulus” value (from here on “effect alone”) is “did not have any effect per se”. For the same compound, the Ki at σ2R [2] (setting [14]) is 22.4 ± 4.13 nM; on σ2R [2] (setting [15]) it was 22 nM and 22.4 nM; at σ1R [3] (setting [16]), 3.64 ± 0.74 nM; on σ1R [3] (setting [17]), 3.64 nM; in [4] it was 8 nM; on hH1R [5], over 10 µM. Moreover, the Kb on human H3R is 18.8 nM.

Regarding `c1ccc(-c2ccc(OCCCN3CCCCC3)cc2)cc1` [Compound 11], in the series with female CD1 mice, the “functional character at σ1 receptor deduced in vivo” value is on record as “σ1 receptor antagonists”. Further, in the series on female CD1 mice (mice, ipl 50 μg + loperamide 4 mg/kg sc), the “effect on loperamide-induced antinociception” value was “increased the antinociceptive effect of loperamide at the injected paw”. Moreover, the “effect alone” value in the series with female CD1 mice (mice, ipl 50 μg) is recorded as “did not have any effect per se”. In addition, the Ki is 67.9 ± 7.51 nM at σ2R [2] (setting [14]); 68 nM and 67.9 nM at σ2R [2] (setting [15]); over 10 µM on hH4R; 4.41 ± 0.58 nM on σ1R [3] (setting [16]); 4.41 nM at σ1R [3] (setting [17]); over 10 µM on hH1R [6]. Moreover, at hH2R, the Ki was over 100 µM.

Regarding `O=C(c1ccccc1)c1ccc(OCCCN2CCCCC2)cc1` [Compound 12], the Ki turned out to be 96.2 ± 14.7 nM at σ2R [2] (setting [14]); 96.2 nM on σ2R [2] (setting [15]); 14.8 ± 1.86 nM on σ1R [3] (setting [16]); 14.8 nM at σ1R [3] (setting [17]); 0.022 µM in [8]. Further, in the series on σ1R [7], the σ2/σ1 ratio is 6.5.

As to `CC(=O)c1ccc(OCCCCCCN2CCN(c3ccncc3)CC2)cc1` [Compound 16], the Ki at σ2R [2] (setting [14]) was 151 ± 26.4 nM; at σ2R [2] (setting [15]) it was 151 nM; at σ1R [3] (setting [16]), 37.8 ± 16.1 nM; at σ1R [3] (setting [17]), 37.8 nM; in series [4], 12.7 nM. Moreover, the σ2/σ1 ratio with σ1R [7] was 4.0.

With `CCC(=O)c1ccc(OCCCCCCN2CCN(c3ccncc3)CC2)cc1` [Compound 17], the Ki is 110 ± 15.9 nM at σ2R [2] (setting [14]); 110 nM at σ2R [2] (setting [15]); 248 ± 30.9 nM at σ1R [3] (setting [16]); 248 nM on σ1R [3] (setting [17]); 16.9 nM in series [4]. Also, the σ2/σ1 ratio in the series on σ1R [7] is recorded as 0.4.

For `CC(C)(C)c1ccc(OCCCCCCN2CCN(c3ccncc3)CC2)cc1` [Compound 18], the Ki at σ2R [2] (setting [14]) is 179 ± 27.2 nM; at σ2R [2] (setting [15]) it was 179 nM; at σ1R [3] (setting [16]) it was 255 ± 48 nM; at σ1R [3] (setting [17]), 255 nM; in [4] it was 397 nM. In addition, in the series on σ1R [7], the σ2/σ1 ratio is reported as 0.7.

Turning to `CC(=O)c1ccc(OCCCCCCCCN2CCN(c3ccncc3)CC2)cc1` [Compound 19], the inhibition constant Ki at σ2R [2] (setting [14]) was 59.7 ± 11.2 nM; at σ2R [2] (setting [15]), 59.7 nM; on σ1R [3] (setting [16]) it was 408 ± 111 nM; at σ1R [3] (setting [17]), 408 nM; in [4] it was 40.5 nM. Further, the σ2/σ1 ratio in the series on σ1R [7] came to 0.1.

As to `CCC(=O)c1ccc(OCCCCCCCCN2CCN(c3ccncc3)CC2)cc1` [Compound 20], the Ki was 65.9 ± 11 nM at σ2R [2] (setting [14]); 65.9 nM at σ2R [2] (setting [15]); 274 ± 40.4 nM on σ1R [3] (setting [16]); 274 nM at σ1R [3] (setting [17]); 38.9 nM in [4]. Further, in the series on σ1R [7], the σ2/σ1 ratio came out at 0.2.

As for `C#CCN(C)Cc1cc2cc(OCCCN3CCCCC3)ccc2n1C` [Contilisant], the Ki is 326 nM on σ2R [9] (Figure 1, clinically evaluated H3R antagonists, read-out: σ2R Ki); 10.8 nM on H3R; 65.2 nM on σ1R [1] (setting [11]).

Consider `CN(C)c1ccncc1` [DMAP], for which, in series [10], the pKa is 9.2.

`COc1cc2c(cc1OC)CN(CCCCNC(=O)c1cc(C)ccc1OCCF)CC2` [F-ISO]: the Ki on σ2R [9] (setting [18]) is 6.95 nM; at σ1R [1] (setting [12]) it was 330 nM.

As for `CNC(=O)c1ccc(Oc2ccc3c(c2)CCN(C2CCC2)CC3)nc1` [GSK189254], the figures for the Ki on H3R and at σ1R [1] (setting [11]) were 1.7 nM and 240 nM, respectively.

Consider `CC(C(O)c1ccc(O)cc1)N1CCC(Cc2ccccc2)CC1` (stereo not shown) [Ifenprodil], for which the values for the Ki at σ2R [9] (setting [18]) and on σ1R [1] (setting [12]) were 18.8 nM and 1.02 nM, respectively.

Regarding `c1cc(OCCCN2CCCCC2)ccc1CN1CCCCC1` [JNJ-5207852], the Ki on H3R is 0.3 nM; at σ1R [1] (setting [11]), 1170 nM.

For `Clc1ccc(CCCOCCCN2CCCCC2)cc1` [PIT, Pitolisant], the IC50 in the series with σ2R [9] (read-out: σ2R IC50 (binding)) was 8.55 nM; at σ2 receptor (read-out: IC50, decrease of haloperidol-induced calcium release (antagonist)), 10 µM. Further, the EC50 at σ1 receptor was 402 nM. The “agonist activity in σ2 receptor-mediated calcium flux functional assay” value with σ2 receptor is recorded as “did not elicit agonist activity”.

In the case of `O=C(OCCN1CCOCC1)C1(c2ccccc2)CCCCC1` [PRE-084, 2-[4-morpholinethyl]1-phenylcyclohexanecarboxylate hydrochloride], the “effect of coadministration on potentiation of loperamide antinociception by S1RA” value in the series on female CD1 mice (mice, 75 μg ipl with S1RA, loperamide-treated, identical with 5 or 11) is reported as “completely abolished the effect of the σ1R antagonist”. The inhibition constant (Ki) at σ2R [9] (setting [18]) is 13100 nM; on σ2R [9] (reference σ1R ligands, read-out: σ2R Ki) it was over 10000 nM; in series [8], over 10 µM.

For the compound `COOc1c(OC)cc(I)cc1C(=O)NCCCCN1CCc2cc(OC)c(OC)cc2C1` [RHM-4, N-(4-(6,7-Dimethoxy-3,4-dihydroisoquinolin-2(1H)-yl)butyl)-5-iodo-3-methoxy-2-(methylperoxy)benzamide], in the series with σ1R [7], the σ2/σ1 ratio is given as 0.00012. Also, the Ki at σ2R [9] (read-out: σ2R Ki) was 0.26 nM; at σ1R [1] (read-out: σ1R Ki), 2150 nM.

In the case of `Cc1cc(OCCN2CCOCC2)nn1-c1ccc2ccccc2c1` [S1RA, 4-[2-[[5-methyl-1-(2-naphthalenyl)-1H-pyraol-3-yl]oxy]ethyl]morpholine hydrochloride, reference compound], in the series with female CD1 mice (setting [13]), the “effect on loperamide-induced antinociception” value is given as “significantly increased the antinociceptive effect induced by loperamide”. For the same compound, the “effect alone” value in the series on female CD1 mice (mice, ipl 100 μg) is on record as “did not change the response to the mechanical stimulus”. Moreover, the Ki in [8] is over 10 µM.
